Reference: EP4603105A1, “PHARMACEUTICAL COMPOSITION CONTAINING CYCLIC COMPOUND HAVING SELECTIVE KRAS INHIBITORY EFFECT AGAINST HRAS AND NRAS” (CHUGAI SEIYAKU KABUSHIKI KAISHA, priority 2022, dated 2024)
Where a SMILES comes first, the peptide text is derived from it. Bridges are numbered along the chain shown (N, C = ends). [ ]: non-standard residue; d: D form. The star is where a group is joined. hPhe(3,5-F2-4-CF3) = N[C@@H](CCc1cc(F)c(C(F)(F)F)c(F)c1)C(=O)O; hPhe(3-Cl-4-CF3) = N[C@@H](CCc1ccc(C(F)(F)F)c(Cl)c1)C(=O)O; NPrPhe(4-CF3) = CCCN[C@@H](Cc1ccc(C(F)(F)F)cc1)C(=O)O; NMeAbu(4,4,4-F3) = CN[C@@H](CC(F)(F)F)C(=O)O; NMePhe(4-F) = CN[C@@H](Cc1ccc(F)cc1)C(=O)O; NMeGly(cPent) = CN[C@H](C(=O)O)C1CCCC1; Pro(4,4-F2) = O=C(O)[C@@H]1CC(F)(F)CN1; αMeCha = C[C@](N)(CC1CCCCC1)C(=O)O; Hyp = O=C(O)[C@@H]1C[C@@H](O)CN1; NMeD = CN[C@@H](CC(=O)O)C(=O)O; NMeL = CN[C@@H](CC(C)C)C(=O)O; Morpholide = C1CN(*)CCO1; NMeA = CN[C@@H](C)C(=O)O; Ac5c = NC1(C(=O)O)CCCC1; Aze = O=C(O)[C@@H]1CCN1; Ac4c = NC1(C(=O)O)CCC1; Sar = CNCC(=O)O

How the values were obtained:
[1] = system: human lung cancer strain NCI-H441; type: cell-based
Procedure, shortened: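 Proliferation was scored by […] measured after the reagent was added to cultures kept at 37°C in 5% carbon dioxide.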

[2] = target: GDP-bound NRAS wild-type protein (Homo sapiens, UniProt P01111); assay: Binding to NRAS by surface plasmon resonance (SPR), KD and KD ratio to KRAS
Procedure, shortened: (§1)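 Compound binding is evaluated by SPR single-cycle kinetics, with concentrations added intermittently from low to high for 75 s each. Target surfaces carry GDP-loaded biotinylated Avi-RAS at about 100–300 RU, regenerated after each cycle; temperature 30°C. A 1:1 binding model gives KD.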

HRAS wild-type protein = HRAS wild-type protein (Homo sapiens, UniProt P01112); assay: Binding to HRAS by surface plasmon resonance (SPR), KD and KD ratio to KRAS
Procedure, shortened: as §1

[3] = ratio of KD for GDP-bound NRAS wild-type protein to KD for KRAS
[4] = ratio of KD for HRAS wild-type protein to KD for KRAS
[5] = ratio of the KD value with respect to GDP-bound NRAS wild-type protein to the KD value with respect to KRAS
[6] = ratio of the KD value with respect to HRAS wild-type protein to the KD value with respect to KRAS

HRAS wild-type protein, sequence (P01112 whole entry): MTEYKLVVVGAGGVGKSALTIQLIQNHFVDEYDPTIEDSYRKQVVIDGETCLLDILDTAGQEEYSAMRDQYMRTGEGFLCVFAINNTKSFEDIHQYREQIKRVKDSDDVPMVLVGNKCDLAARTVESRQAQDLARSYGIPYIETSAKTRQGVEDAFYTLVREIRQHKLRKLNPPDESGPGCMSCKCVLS
GDP-bound NRAS wild-type protein, sequence (P01111 whole entry): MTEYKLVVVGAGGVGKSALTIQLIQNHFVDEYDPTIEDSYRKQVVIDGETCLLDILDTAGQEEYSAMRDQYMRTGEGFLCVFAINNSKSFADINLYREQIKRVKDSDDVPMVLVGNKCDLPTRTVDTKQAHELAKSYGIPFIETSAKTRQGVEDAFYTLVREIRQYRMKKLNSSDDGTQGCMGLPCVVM

Structure (SMILES)	IC50 [1]	NRAS /KRAS [2, 3]	HRAS /KRAS (HRAS wild-type protein; [4])	NRAS /KRAS [2, 5]	HRAS /KRAS (HRAS wild-type protein; [6])	other results
CC[C@H](C)[C@@H]1NC(=O)[C@H](CC(C)C)N(C)C(=O)C[C@@H](C(=O)N(C)C)N(C)C(=O)[C@H](C2CCCC2)N(C)C(=O)C2(CC(C)(C)C2)NC(=O)CN(C)C(=O)[C@H](CCc2cc(F)c(C(F)(F)F)c(F)c2)NC(=O)CN(C)C(=O)[C@H](Cc2ccc(C(F)(F)F)cc2)N2CC/C=C\C[C@@H](C2=O)N(C)C(=O)CN(C)C1=O [PP1776]	98.7 nM	–	–	–	–	NRAS /KRAS ([2]; ratio of KD value for GDP-bound NRAS wild-type protein to KD value for KRAS (SPR)): A (a compound having 10 or more and less than 20 is denoted as A); HRAS /KRAS (HRAS wild-type protein; ratio of KD value for HRAS wild-type protein to KD value for KRAS (SPR)): A (a compound having 10 or more and less than 20 is denoted as A)
CCCN1C(=O)CN(C)C(=O)CN(C)C(=O)[C@H]([C@@H](C)CC)NC(=O)[C@H](CC(F)(F)F)N(C)C(=O)C[C@@H](C(=O)N2CCOCC2)N(C)C(=O)[C@H](C2CCCC2)N(C)C(=O)C2(CCCC2)NC(=O)[C@@H]2CCCN2C(=O)[C@H](CCc2ccc(C(F)(F)F)c(Cl)c2)NC(=O)CN(C)C(=O)[C@@H]1Cc1ccc(C(F)(F)F)cc1 [PP0187] ([NMeAbu(4,4,4-F3)]I[Sar][Sar][NPrPhe(4-CF3)][Sar][hPhe(3-Cl-4-CF3)]P[Ac5c][NMeGly(cPent)][NMeD]-Morpholide; lactam N-11)	3 nM	B (a compound having 3 or more and less than 10 is denoted as B)	C (A compound having a KD ratio of 0.1 or more and less than 3 is denoted as C)	–	–	–
CCCN1C(=O)CN(C)C(=O)[C@H](C)NC(=O)[C@H]([C@@H](C)CC)NC(=O)[C@H](CC(C)C)N(C)C(=O)C[C@@H](C(=O)N2CCOCC2)N(C)C(=O)[C@H](C2CCCC2)N(C)C(=O)C2(CCCC2)NC(=O)[C@@H]2CCCN2C(=O)[C@H](CCc2ccc(C(F)(F)F)c(Cl)c2)NC(=O)CN(C)C(=O)[C@@H]1Cc1ccc(C(F)(F)F)cc1 [PP1971] ([NMeL]IA[Sar][NPrPhe(4-CF3)][Sar][hPhe(3-Cl-4-CF3)]P[Ac5c][NMeGly(cPent)][NMeD]-Morpholide; lactam N-11)	38 nM	–	–	B (a compound having 3 or more and less than 10 is denoted as B)	B (a compound having 3 or more and less than 10 is denoted as B)	–
CCCN1C(=O)CN(C)C(=O)CNC(=O)[C@H]([C@@H](C)CC)NC(=O)[C@H](CC(C)C)N(C)C(=O)C[C@@H](C(=O)N2CCOCC2)N(C)C(=O)[C@H](C2CCCC2)N(C)C(=O)C2(CCC2)NC(=O)[C@@H]2CC(F)(F)CN2C(=O)[C@H](CCc2ccc(C(F)(F)F)c(Cl)c2)NC(=O)CN(C)C(=O)[C@@H]1Cc1ccc(C(F)(F)F)cc1 [PP0395] ([NMeL]IG[Sar][NPrPhe(4-CF3)][Sar][hPhe(3-Cl-4-CF3)][Pro(4,4-F2)][Ac4c][NMeGly(cPent)][NMeD]-Morpholide; lactam N-11)	0.8 nM	–	–	B (a compound having 3 or more and less than 10 is denoted as B)	C (A compound having a KD ratio of 0.1 or more and less than 3 is denoted as C)	–
CCO[C@@H]1C[C@H]2C(=O)NC3(CCC3)C(=O)N(C)[C@@H](C3CCCC3)C(=O)N(C)[C@H](C(=O)N(C)C)CC(=O)N(C)[C@@H](CC3CCC3)C(=O)N[C@@H]([C@@H](C)CC)C(=O)N(C)CC(=O)N(C)[C@H]3CCCCN(C3=O)[C@@H](Cc3ccc(C(F)(F)F)cc3)C(=O)N(C)CC(=O)N[C@@H](CCc3cc(F)c(C(F)(F)F)c(F)c3)C(=O)N2C1 [PP0698]	4.1 nM	–	–	C (A compound having a KD ratio of 0.1 or more and less than 3 is denoted as C)	C (A compound having a KD ratio of 0.1 or more and less than 3 is denoted as C)	–
CC[C@H](C)[C@@H]1NC(=O)[C@H](CC(F)(F)F)N(C)C(=O)C[C@@H](C(=O)N2CCOCC2)N(C)C(=O)[C@H](C2CCCC2)N(C)C(=O)C2(CCCC2)NC(=O)[C@@H]2CCCN2C(=O)[C@H](CCc2cc(F)c(C(F)(F)F)c(F)c2)NC(=O)CN(C)C(=O)[C@H](Cc2ccc(C(F)(F)F)cc2)N2CCCC[C@@H](C2=O)N(C)C(=O)CN(C)C1=O [PP0594]	2.5 nM	–	–	C (A compound having a KD ratio of 0.1 or more and less than 3 is denoted as C)	B (a compound having 3 or more and less than 10 is denoted as B)	–
CCCN1C(=O)[C@@H]2CCN2C(=O)[C@H](C)N(C)C(=O)[C@H]([C@@H](C)CC)NC(=O)[C@H](CC(C)C)N(C)C(=O)C[C@@H](C(=O)N(C)C)NC(=O)[C@H](C2CCCC2)N(C)C(=O)C2(CCC2)NC(=O)[C@@H]2C[C@@H](OCC)CN2C(=O)[C@H](CCc2ccc(C(F)(F)F)c(Cl)c2)NC(=O)CN(C)C(=O)[C@@H]1Cc1ccc(C(F)(F)F)cc1 [PP0384] ([NMeL]I[NMeA][Aze][NPrPhe(4-CF3)][Sar][hPhe(3-Cl-4-CF3)][Hyp](Et)[Ac4c][NMeGly(cPent)]D-NMe2; lactam N-11)	7 nM	C (A compound having a KD ratio of 0.1 or more and less than 3 is denoted as C)	B (a compound having 3 or more and less than 10 is denoted as B)	–	–	–
CC[C@H](C)[C@@H]1NC(=O)[C@H](CC(C)C)N(C)C(=O)C[C@@H](C(=O)N2CCOCC2)N(C)C(=O)[C@H](C2CCCC2)N(C)C(=O)C2(CCCC2)NC(=O)[C@@H]2CCCN2C(=O)[C@H](CCc2ccc(C(F)(F)F)c(Cl)c2)NC(=O)CN(C)C(=O)[C@H](Cc2ccc(F)cc2)N(C)C(=O)[C@@H]2CCN2C(=O)[C@H](C)N(C)C1=O [PP0217] ([NMeL]I[NMeA][Aze][NMePhe(4-F)][Sar][hPhe(3-Cl-4-CF3)]P[Ac5c][NMeGly(cPent)][NMeD]-Morpholide; lactam N-11)	18.1 nM	C (A compound having a KD ratio of 0.1 or more and less than 3 is denoted as C)	C (A compound having a KD ratio of 0.1 or more and less than 3 is denoted as C)	–	–	–
CCCN1C(=O)CN(C)C(=O)CN(C)C(=O)[C@H]([C@@H](C)CC)NC(=O)[C@H](CC(C)C)N(C)C(=O)C[C@@H](C(=O)N(C)C)N(C)C(=O)[C@H](C2CCCC2)N(C)C(=O)[C@](C)(CC2CCCCC2)NC(=O)[C@@H]2CCCN2C(=O)[C@H](CCc2cc(F)c(C(F)(F)F)c(F)c2)NC(=O)CN(C)C(=O)[C@@H]1Cc1ccc(C(F)(F)F)cc1 [PP0739] ([NMeL]I[Sar][Sar][NPrPhe(4-CF3)][Sar][hPhe(3,5-F2-4-CF3)]P[αMeCha][NMeGly(cPent)][NMeD]-NMe2; lactam N-11)	297 nM	–	–	B (a compound having 3 or more and less than 10 is denoted as B)	C (A compound having a KD ratio of 0.1 or more and less than 3 is denoted as C)	–
CCCN1C(=O)CN(C)C(=O)[C@@H]2CCN2C(=O)[C@H]([C@@H](C)CC)NC(=O)[C@H](CC(C)C)N(C)C(=O)C[C@@H](C(=O)N2CCOCC2)NC(=O)[C@H](C2CCCC2)N(C)C(=O)C2(CCC2)NC(=O)[C@@H]2C[C@@H](OCC)CN2C(=O)[C@H](CCc2ccc(C(F)(F)F)c(Cl)c2)NC(=O)CN(C)C(=O)[C@@H]1Cc1ccc(C(F)(F)F)cc1 [PP0342] ([NMeL]I[Aze][Sar][NPrPhe(4-CF3)][Sar][hPhe(3-Cl-4-CF3)][Hyp](Et)[Ac4c][NMeGly(cPent)]D-Morpholide; lactam N-11)	141 nM	B (a compound having 3 or more and less than 10 is denoted as B)	B (a compound having 3 or more and less than 10 is denoted as B)	–	–	–
CCC[C@H]1C(=O)N[C@@H]([C@@H](C)CC)C(=O)N(C2CC2)CC(=O)N(C)[C@H]2C/C=C\CCN(C2=O)[C@@H](Cc2ccc(C(F)(F)F)cc2)C(=O)N(C)CC(=O)N[C@@H](CCc2ccc(Cl)c(Cl)c2)C(=O)N2C[C@H](OCC)C[C@H]2C(=O)NC2(CC(C)(C)C2)C(=O)N(C)[C@@H](CC2CC2)C(=O)N(C)[C@H](C(=O)N(C)C)CC(=O)N1C [PP2817]	55.2 nM	A (a compound having 10 or more and less than 20 is denoted as A)	A (a compound having 10 or more and less than 20 is denoted as A)	–	–	–
CCO[C@@H]1C[C@H]2C(=O)NC3(CCC3)C(=O)N(C)[C@@H](C3CCCC3)C(=O)N(C)[C@H](C(=O)N3CCOCC3)CC(=O)N(C)[C@@H](CC(C)C)C(=O)N[C@@H]([C@@H](C)CC)C(=O)N(C)CC(=O)N(C)[C@H]3CC/C=C(/C)CN(C3=O)[C@@H](Cc3ccc(C(F)(F)F)cc3)C(=O)N(C)CC(=O)N[C@@H](CCc3cc(F)c(C(F)(F)F)c(F)c3)C(=O)N2C1 [PP1333]	980 nM	–	–	–	–	NRAS /KRAS ([2]; ratio of KD with respect to GDP-bound NRAS wild-type protein to KD with respect to KRAS): C (A compound having a KD ratio of 0.1 or more and less than 3 is denoted as C); HRAS /KRAS (HRAS wild-type protein; ratio of KD with respect to HRAS wild-type protein to KD with respect to KRAS): B (a compound having 3 or more and less than 10 is denoted as B)
CCCN1C(=O)CN(C)C(=O)[C@@H]2CCN2C(=O)[C@H]([C@@H](C)CC)NC(=O)[C@H](CC(C)C)N(C)C(=O)C[C@@H](C(=O)N2CCOCC2)NC(=O)[C@H](C2CCCC2)N(C)C(=O)C2(CCCC2)NC(=O)[C@@H]2CCCN2C(=O)[C@H](CCc2ccc(C(F)(F)F)c(Cl)c2)NC(=O)CN(C)C(=O)[C@@H]1Cc1ccc(C(F)(F)F)cc1 [PP0337] ([NMeL]I[Aze][Sar][NPrPhe(4-CF3)][Sar][hPhe(3-Cl-4-CF3)]P[Ac5c][NMeGly(cPent)]D-Morpholide; lactam N-11)	333 nM	B (a compound having 3 or more and less than 10 is denoted as B)	B (a compound having 3 or more and less than 10 is denoted as B)	–	–	–
